The numbers were not newly measured in patent US20110311631A1, “CONTROLLED RELEASE PHARMACEUTICAL COMPOSITION WITH RESISTANCE AGAINST THE INFLUENCE OF ETHANOL EMPLOYING A COATING COMPRISING A POLYMER MIXTURE AND EXCIPIENTS” (EVONIK RÖHM GMBH, priority 2009, published 2011), which cites them from elsewhere.

The conditions of the series: USP classification, between 15° C. and 25° C.

Structures can show the parent of a compound that is named as a salt. Where two headings read alike, the source gives them in different places.

Take `COc1ccc([C@@H]2Sc3ccccc3N(CCN(C)C)C(=O)[C@@H]2OC(C)=O)cc1` [Diltiazem HCl]: the Solubility in water entry is given as “Freely soluble (from 1 to 10)”. In addition, the Solubility in ethanol entry (HCl) is “Sparingly soluble (more than 30 to 100)”. Where the note is “listed as diltiazem, HCl”, the Solubility in ethanol result is “sparingly soluble”.

`C=CCN1CC[C@]23c4c5ccc(O)c4O[C@H]2C(=O)CC[C@@]3(O)[C@H]1C5` [Naloxone]: the Solubility in ethanol result is “Slightly soluble (more than 100 to 1000)” and the Solubility in water result is listed as “Soluble (more than 10 to 30)”. Moreover, the Solubility in ethanol entry (listed as naloxone) is “slightly soluble”.

In the case of `NC(=O)N1c2ccccc2C=Cc2ccccc21` [Carbamazepine], the Solubility in ethanol result is given as “Soluble (more than 10 to 30)” and the Solubility in water entry is recorded as “Practically insoluble (more than 10.000)”.

As for `COCCc1ccc(OCC(O)CNC(C)C)cc1` (centres unmarked) [Metoprolol succinate], the Solubility in ethanol entry is on record as “Sparingly soluble (more than 30 to 100)” and the Solubility in water result is “Freely soluble (from 1 to 10)”. Further, the Solubility in ethanol entry (listed as metoprolol) is listed as “sparingly soluble”.

For the compound `Cn1c(=O)c2[nH]cnc2n(C)c1=O` [Theophylline], the Solubility in ethanol result was “Sparingly soluble (more than 30 to 100)” and the Solubility in water result was “Slightly soluble (more than 100 to 1000)”. Besides, under “listed as theophyllin”, the Solubility in ethanol entry is recorded as “sparingly soluble”.
